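Tested at 5 concentrations; 48 h exposure; 96-well plates; endpoints linearly interpolated, else capped at highest concentration. GI50: concentration for 50% inhibition of growth.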 Active and inactive are the calls of the source. Rule as the data show it: active = GI50 up to about 1.1 µM and inactive = higher.
Assays:
Assay in all cases: DTP human tumour cell line panel, 48 h
NCI-H522 = system: NCI-H522
SNB-75 = system: SNB-75
MDA-N = system: MDA-N
MCF7 = system: MCF7
CCRF-CEM = system: CCRF-CEM
UO-31 = system: UO-31
OVCAR-4 = system: OVCAR-4
SN12C = system: SN12C
SW-620 = system: SW-620
EKVX = system: EKVX
SF-268 = system: SF-268
A549 = system: A549
ACHN = system: ACHN
HL-60 = system: HL-60
SR = system: SR
M14 = system: M14
HT-29 = system: HT-29
NCI-H460 = system: NCI-H460
IGROV-1 = system: IGROV-1
OVCAR-8 = system: OVCAR-8
A498 = system: A498
SK-MEL-28 = system: SK-MEL-28
LOX IMVI = system: LOX IMVI
DU-145 = system: DU-145
Hs-578T = system: Hs-578T
NCI/ADR-RES = system: NCI/ADR-RES
OVCAR-5 = system: OVCAR-5
HOP-62 = system: HOP-62
SK-MEL-5 = system: SK-MEL-5
KM12 = system: KM12
HCC 2998 = system: HCC 2998
786-0 = system: 786-0
SF-295 = system: SF-295
RXF 393 = system: RXF 393
U-251 = system: U-251
HCT-15 = system: HCT-15
MOLT-4 = system: MOLT-4
SF-539 = system: SF-539
OVCAR-3 = system: OVCAR-3
TK-10 = system: TK-10
NCI-H23 = system: NCI-H23
SNB-19 = system: SNB-19
CAKI-1 = system: CAKI-1
MDA-MB-435 = system: MDA-MB-435
NCI-H226 = system: NCI-H226
HOP-92 = system: HOP-92
RPMI-8226 = system: RPMI-8226
COLO 205 = system: COLO 205
PC-3 = system: PC-3
MDA-MB-231 = system: MDA-MB-231
HCT-116 = system: HCT-116
UACC-257 = system: UACC-257
K562 = system: K562
BT-549 = system: BT-549
Malme-3M = system: Malme-3M
SK-MEL-2 = system: SK-MEL-2
SK-OV-3 = system: SK-OV-3
UACC-62 = system: UACC-62

O=c1[nH]c(=O)n(COCCO)c2ccsc12
GI50 (NCI-H522): > 100 µM (inactive) | GI50 (SNB-75): > 100 µM (inactive) | GI50 (MDA-N): > 100 µM (inactive) | GI50 (MCF7): > 100 µM (inactive) | GI50 (CCRF-CEM): > 100 µM (inactive) | GI50 (UO-31): > 100 µM (inactive) | GI50 (OVCAR-4): > 100 µM (inactive) | GI50 (SN12C): > 100 µM (inactive) | GI50 (SW-620): > 100 µM (inactive) | GI50 (EKVX): > 100 µM (inactive) | GI50 (SF-268): > 100 µM (inactive) | GI50 (A549): > 100 µM (inactive) | GI50 (ACHN): > 100 µM (inactive) | GI50 (HL-60): > 100 µM (inactive) | GI50 (SR): > 100 µM (inactive) | GI50 (M14): > 100 µM (inactive) | GI50 (HT-29): > 100 µM (inactive) | GI50 (NCI-H460): > 100 µM (inactive) | GI50 (IGROV-1): > 100 µM (inactive) | GI50 (OVCAR-8): > 100 µM (inactive) | GI50 (A498): > 100 µM (inactive) | GI50 (SK-MEL-28): > 100 µM (inactive) | GI50 (LOX IMVI): > 100 µM (inactive) | GI50 (DU-145): > 100 µM (inactive) | GI50 (Hs-578T): > 100 µM (inactive) | GI50 (NCI/ADR-RES): > 100 µM (inactive) | GI50 (OVCAR-5): > 100 µM (inactive) | GI50 (HOP-62): > 100 µM (inactive) | GI50 (SK-MEL-5): > 100 µM (inactive) | GI50 (KM12): > 100 µM (inactive) | GI50 (HCC 2998): > 100 µM (inactive) | GI50 (786-0): > 100 µM (inactive) | GI50 (SF-295): > 100 µM (inactive) | GI50 (RXF 393): > 100 µM (inactive) | GI50 (U-251): > 100 µM (inactive) | GI50 (HCT-15): > 100 µM | GI50 (MOLT-4): > 100 µM (inactive) | GI50 (SF-539): > 100 µM (inactive) | GI50 (OVCAR-3): > 100 µM (inactive) | GI50 (TK-10): > 100 µM (inactive) | GI50 (NCI-H23): > 100 µM (inactive) | GI50 (SNB-19): 32.4 µM (inactive) | GI50 (CAKI-1): > 100 µM (inactive) | GI50 (MDA-MB-435): > 100 µM (inactive) | GI50 (NCI-H226): > 100 µM (inactive) | GI50 (HOP-92): > 100 µM (inactive) | GI50 (RPMI-8226): > 100 µM (inactive) | GI50 (COLO 205): > 100 µM (inactive) | GI50 (PC-3): > 100 µM (inactive) | GI50 (MDA-MB-231): > 100 µM (inactive) | GI50 (HCT-116): > 100 µM (inactive) | GI50 (UACC-257): > 100 µM (inactive) | GI50 (K562): > 100 µM (inactive) | GI50 (BT-549): > 100 µM (inactive) | GI50 (Malme-3M): > 100 µM (inactive) | GI50 (SK-MEL-2): > 100 µM (inactive)

C/C=C\C(CC(=O)NCCC1CN(C(=O)OCc2ccccc2)c2ccccc21)CC(=O)OC (stereo not drawn)
GI50 (NCI-H522): > 100 µM (inactive) | GI50 (SNB-75): > 100 µM (inactive) | GI50 (MDA-N): > 100 µM (inactive) | GI50 (MCF7): > 100 µM (inactive) | GI50 (CCRF-CEM): > 100 µM (inactive) | GI50 (UO-31): > 100 µM (inactive) | GI50 (OVCAR-4): > 100 µM (inactive) | GI50 (SW-620): > 100 µM (inactive) | GI50 (EKVX): > 100 µM (inactive) | GI50 (SF-268): > 100 µM (inactive) | GI50 (A549): > 100 µM (inactive) | GI50 (ACHN): > 100 µM (inactive) | GI50 (M14): > 100 µM (inactive) | GI50 (HT-29): > 100 µM (inactive) | GI50 (NCI-H460): 86.5 µM (inactive) | GI50 (IGROV-1): > 100 µM (inactive) | GI50 (OVCAR-8): > 100 µM (inactive) | GI50 (A498): > 100 µM (inactive) | GI50 (SK-MEL-28): > 100 µM (inactive) | GI50 (SK-OV-3): > 100 µM (inactive) | GI50 (DU-145): > 100 µM (inactive) | GI50 (Hs-578T): > 100 µM (inactive) | GI50 (NCI/ADR-RES): > 100 µM (inactive) | GI50 (OVCAR-5): > 100 µM (inactive) | GI50 (HOP-62): > 100 µM (inactive) | GI50 (SK-MEL-5): > 100 µM (inactive) | GI50 (KM12): > 100 µM (inactive) | GI50 (HCC 2998): > 100 µM (inactive) | GI50 (786-0): > 100 µM (inactive) | GI50 (SF-295): > 100 µM (inactive) | GI50 (RXF 393): > 100 µM (inactive) | GI50 (U-251): > 100 µM (inactive) | GI50 (HCT-15): > 100 µM | GI50 (MOLT-4): > 100 µM (inactive) | GI50 (OVCAR-3): > 100 µM (inactive) | GI50 (TK-10): > 100 µM (inactive) | GI50 (NCI-H23): > 100 µM (inactive) | GI50 (SNB-19): > 100 µM (inactive) | GI50 (CAKI-1): > 100 µM (inactive) | GI50 (MDA-MB-435): > 100 µM (inactive) | GI50 (HOP-92): 72.1 µM (inactive) | GI50 (RPMI-8226): 79.4 µM (inactive) | GI50 (COLO 205): 50.5 µM (inactive) | GI50 (PC-3): 99.8 µM (inactive) | GI50 (MDA-MB-231): > 100 µM (inactive) | GI50 (HCT-116): > 100 µM (inactive) | GI50 (UACC-257): > 100 µM (inactive) | GI50 (K562): > 100 µM (inactive) | GI50 (UACC-62): > 100 µM (inactive) | GI50 (BT-549): > 100 µM (inactive) | GI50 (Malme-3M): > 100 µM (inactive) | GI50 (SK-MEL-2): > 100 µM (inactive)
